Test results published in patent publication EP4461367A1, “NEW TERNATIN-TYPE CYCLOPEPTIDES FOR USE IN THERAPY” (Centre National de la Recherche Scientifique, priority 2023, dated 2024).
Starred links: 1 amine or outer side, 2 acyl side, 3 side chain; linkers in the order of their positions; H or OH if unused. Non-standard residues stand in square brackets, D forms with d. Residues, ends and D or L forms follow the SMILES beside them. ξ: configuration not given here. X5 = CC(CC(C(=O)[*:2])N(C)[*:1])C(C)OC=O; X2 = CC(COC=O)CC(C(=O)[*:2])N(C)[*:1]; X4 = CC(O)C(C)CC(C(=O)[*:2])N(C)[*:1]; ξNle(4-Me,5-ene) = C=CC(C)CC(N)C(=O)O; X1 = CCC(C)CC(C(=O)[*:2])N(C)[*:1]; X3 = CC(CO)CC(C(=O)[*:2])N(C)[*:1]; ξLeu(3ξ-OH) = CC(C)C(O)C(N)C(=O)O; NMeA = CN[CH](C)C(=O)O

Columns and labels:
[1] = tested on: HCoV-229E-Luc; test: microbe, parasite or virus in culture; type: cell-based, human alphacoronavirus HCoV-229-E; settings: Alphacoronavirus, Huh-7, 24 h, read-out: IC50 (nM) Huh7
[2] = tested on: DENV; test: DENV antiviral assay, infected cells by FACS at 72 h post-infection; type: cell-based; settings: Dengue virus; Vero cells, DENV MOI = 0.1, 72 h post-infection, Figure 9C; read-out: IC50 against DENV
Procedure: At 72 h post-infection, the percentage of DENV-infected cells was measured by FACS assay.

[3] = tested on: ZIKV^GFP; test: Time of drug-addition assay, ZIKV^GFP in A549 cells; settings: 10 nM, Figure 11C
Procedure: Time of drug-addition assay aims at characterizing the antiviral action of the compounds of the invention on various stages of the dissecting virus infectious cycle.
Compound C1 (10 nM) or vehicle were used for treatment of A549 cells for viral inactivation assay, concurrently to virus input (Entry), after virus exposure (Replication) with specific washing steps and incubation periods (Figure 11A).
The data represent the means ± SD of four independent experiments performed in triplicate, and are expressed as relative values compared to vehicle-treated cells.

[4] = tested on: ZIKV^GFP; test: ZIKV^GFP antiviral assay, GFP by FACS at 24 h post-infection; type: cell-based; settings: Zika virus
Source text: The antiviral activity of the compounds (C1 and C3 to C7) of formula (I) has been evaluated against Zika virus as representative of flaviviruses. Vero, A549 or Huh7.5 cells were infected with ZIKV^GFP (MOI=2) and simultaneously treated with increasing concentrations of the compounds of formula (I) (C1 and C3 to C7) or ternatin (ten-fold serial dilutions of considered compound).

[5] = Cellular cytotoxicity, MTT assay, Huh7; type: cell-based; settings: human, Huh7 cells, 48 h of treatment
Procedure: (§1) Cytotoxicity of the compounds of formula (I) was evaluated on A549, Vero E6 and Huh7 cells by measuring the mitochondrial activity after 48 h of treatment by an MTT assay.

[6] = tested on: SARS-CoV-2; test: Preclinical model in human primary bronchial epithelial cells (Mucilair), viral RNA by qRTPCR; type: cell-based; settings: Severe acute respiratory syndrome coronavirus 2, Primary bronchial epithelial cell, viral RNA at 72 h post-inoculation, Figure 12, read-out: inhibition of the infection by SARS-CoV-2
Procedure: The compound C1 was evaluated on a preclinical model in human primary bronchial epithelial cells (Mucilair) against SARS-CoV-2 (T. Meunier et al., Antimicrob Agents Chemother. 2022 Feb; 66(2): e01581-21). Mucilair cells were inoculated with SARS-CoV-2 in the presence of compound C1 at 0.75, 7.5 or 75 pM for 1 h at the apical side. Inoculum was removed 1 h post-infection. At 72 h post-inoculation, cells were lysed to extract RNA. Viral RNA was quantified by qRTPCR. For RNA quantification, data are expressed relative to the Mock-treated control.

[7] = tested on: RRV^GFP; test: microbe, parasite or virus in culture; settings: Ross River virus, Vero, 18 h, read-out: IC50 against RRV
Procedure: At 18 h post-infection, the percentage of GFP expressed by the cells is measured by FACS (Flow cytometric analysis of GFP fluorescence). Data represent the means ± SD of four independent experiments performed in triplicate and are expressed as relative values compared to mock-treated control.

[8] = tested on: adult zebrafish
Procedure: (D) Total distance travelled at 1 day post injection. […] After injection, fish were observed during 5 days. Statistical analyses were conducted using unpaired t-test comparisons, n = 5 (n: number of fishes per group).

[9] = tested on: ZIKV^GFP; test: ZIKV^GFP antiviral assay, GFP by FACS at 48 h post-infection; type: cell-based; settings: Zika virus, Vero, read-out: IC50 against ZIKV
Source text: Vero cells were infected with ZIKV^GFP (MOI=2) and simultaneously treated with increasing concentrations of the compound C1 or ternatin (ten-fold serial dilutions of considered compound).

[10] = Cellular cytotoxicity, MTT assay, A549; type: cell-based; settings: human, A549 cells, 48 h of treatment
Procedure: as §1

[11] = Cellular cytotoxicity, MTT assay, Vero E6; type: cell-based; settings: african green monkey, Vero E6 cells, 48 h of treatment
Procedure: as §1

[12] = tested on: SARS-CoV-2; test: SARS-CoV-2 viral progeny, PFU assay (plaque-forming assay) of Huh7 supernatant; type: cell-based; settings: Huh7 cells, MOI=0.01, 24 h post-infection, at 0.6 nM, Figure 10B
Procedure: The compound C1 has been tested on the betacoronavirus SARS-CoV-2. Huh7 cells were infected with SARS-CoV-2 (MOI=0.01) and simultaneously treated with increasing concentrations of the compound of formula (I). At 24 h post-infection, cell supernatant was recovered for viral titration (Figure 10B). Viral progeny was measured by a PFU assay (plaque-forming assay) by quantifying infectious particles in the supernatant (PFU/mL).

[13] = A549, 24 h, read-out: IC50 (nM) A549
[14] = Huh7.5, 24 h, read-out: IC50 (nM) Huh7.5
[15] = Vero, 24 h, read-out: IC50 (nM) Vero

| SMILES | IC50 [1] [nM] | IC50 [2] [nM] | stage of viral infection targeted [3] | IC50 [4, 13] [nM] | IC50 [4, 14] [nM] | IC50 [4, 15] [nM] | CC50 at 48 h [5] [nM] | inhibition at 75 pM [6] [%] | IC50 [7] [nM] | toxicity in adult zebrafish ([8]; at the effective antiviral dose, injected 10 ng/µL, observed during 5 days) | fine-tune locomotor activity of zebrafish ([8]; injected with 10 ng/µL, 1 day post injection, Figure 13) | IC50 [9] [nM] | CC50 at 48 h [10] [nM] | CC50 at 48 h [11] [nM] | reduces SARS-CoV-2 viral progeny production [12] [logs] |
| --- | --- | --- | --- | --- | --- | --- | --- | --- | --- | --- | --- | --- | --- | --- | --- |
| C=CC(C)CC1NC(=O)C(CC(C)C)N(C)C(=O)C(C)N(C)C(=O)C(C(C)CC)NC(=O)C(C(O)C(C)C)NC(=O)C(C)N(C)C(=O)C(C)N(C)C1=O (stereo not shown) [Compound C1, comptonellin A] | 5 | 42 | targets late stages of viral infection | 4 | 2 | 9 | 4.9 | > 98 | 57 | no toxicity | did not impair fine-tune locomotor activity | 60 | 11.2 | 200 | 3 |
| C=CC(C)CC1NC(=O)C(CC(C)CC)N(C)C(=O)C(C)N(C)C(=O)C(C(C)CC)NC(=O)C(C(O)C(C)C)NC(=O)C(C)N(C)C(=O)C(C)N(C)C1=O (stereo not shown) [Compound C3, comptonellin C] (cyclo([X1][ξNle(4-Me,5-ene)][NMeA][NMeA][ξLeu(3ξ-OH)]I[NMeA]); configuration not given here) | 2.4 | – | – | 0.5 | 0.003 | 9 | – | – | – | – | – | – | – | 412 | – |
| C=CC(C)CC1NC(=O)C(CC(C)CO)N(C)C(=O)C(C)N(C)C(=O)C(C(C)CC)NC(=O)C(C(O)C(C)C)NC(=O)C(C)N(C)C(=O)C(C)N(C)C1=O (stereo not shown) [Compound C4, comptonellin D] (cyclo([X3][ξNle(4-Me,5-ene)][NMeA][NMeA][ξLeu(3ξ-OH)]I[NMeA]); configuration not given here) | 96.8 | – | – | 26 | 12 | 163 | 9.35 | – | – | – | – | – | 52.8 | 3760 | – |
| C=CC(C)CC1NC(=O)C(CC(C)C(C)O)N(C)C(=O)C(C)N(C)C(=O)C(C(C)CC)NC(=O)C(C(O)C(C)C)NC(=O)C(C)N(C)C(=O)C(C)N(C)C1=O (stereo not shown) [Compound C5, comptonellin E] (cyclo([X4][ξNle(4-Me,5-ene)][NMeA][NMeA][ξLeu(3ξ-OH)]I[NMeA]); configuration not given here) | 98.5 | – | – | 40 | 11 | 244 | 31.9 | – | – | – | – | – | 99.8 | 4810 | – |
| C=CC(C)CC1NC(=O)C(CC(C)COC=O)N(C)C(=O)C(C)N(C)C(=O)C(C(C)CC)NC(=O)C(C(O)C(C)C)NC(=O)C(C)N(C)C(=O)C(C)N(C)C1=O (stereo not shown) [Compound C6, comptonellin F] (cyclo([X2][ξNle(4-Me,5-ene)][NMeA][NMeA][ξLeu(3ξ-OH)]I[NMeA]); configuration not given here) | 36.8 | – | – | 13 | 9 | 115 | 22.1 | – | – | – | – | – | 41 | 3530 | – |
| C=CC(C)CC1NC(=O)C(CC(C)C(C)OC=O)N(C)C(=O)C(C)N(C)C(=O)C(C(C)CC)NC(=O)C(C(O)C(C)C)NC(=O)C(C)N(C)C(=O)C(C)N(C)C1=O (stereo not shown) [Compound C7, comptonellin G] (cyclo([X5][ξNle(4-Me,5-ene)][NMeA][NMeA][ξLeu(3ξ-OH)]I[NMeA]); configuration not given here) | 15 | – | – | 46 | 16 | 176 | 93.9 | – | – | – | – | – | 80.6 | 379 | – |
| COc1cc(-c2oc3c(OC)c(OC)cc(O)c3c(=O)c2OC)ccc1O [Ternatin, ternatin] | 157 | 493 | – | 92 | 23 | 584 | – | – | 977 | – | – | 860 | – | – | – |
